Key:
Format in all cases: in vivo
transplanted rice = assay: Test Example 1: preemergence treatment under submerged conditions, effect on crop; details: dose 2.52 g/a
In short: (§1)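 Score 0–5 by mortality (5: ≥90%; 0: <5%), read 3 weeks post-application. Paddy-type cups: alluvial soil under 4 cm water, weeds seeded plus transplanted 2.5-leaf rice; diluted EC dosed onto water surface same day as sowing, g/a basis; greenhouse 25 to 30° C.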

common lambsquater [1] = assay: Test Example 4: herbicidal effect in foliage treatment; details: dose 3.2 g/a
In short: (§2)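 14-day greenhouse-grown plants (25–30° C) sprayed on foliage with diluted EC; dose as g/a; effect graded after 3 weeks.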

redroot pigweed [2] = assay: as above; details: dose 3.2 g/a
In short: as §2

Italian ryegrass [3] = assay: as above; details: dose 3.2 g/a
In short: as §2

common ragweed [4] = assay: as above; details: dose 3.2 g/a
In short: as §2

large crabgrass [5] = assay: as above; details: dose 3.2 g/a
In short: as §2

velvetleaf [6] = assay: as above; details: dose 3.2 g/a
In short: as §2

posumbu knotweed [7] = assay: as above; details: dose 3.2 g/a
In short: as §2

beadstraw = assay: as above; details: dose 3.2 g/a
In short: as §2

barnyardgrass [8] = assay: as above; details: dose 3.2 g/a
In short: as §2

water foxtail [9] = assay: as above; details: dose 3.2 g/a
In short: as §2

common chickweed [10] = assay: as above; details: dose 3.2 g/a
In short: as §2

giant foxtail [11] = assay: as above; details: dose 3.2 g/a
In short: as §2

common lambsquater [12] = assay: Test Example 3: herbicidal effects in soil treatment; details: dose 3.2 g/a
In short: (§3)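 Seeds were sown in sterilized diluvial soil and covered with about 1.5 cm of soil. Compounds, formulated as emulsifiable concentrates and diluted with water, were sprayed evenly over the soil surface at set doses in g/a. Herbicidal effect was scored on a rating scale three weeks later.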

redroot pigweed [13] = assay: as above; details: dose 3.2 g/a
In short: as §3

Italian ryegrass [14] = assay: as above; details: dose 3.2 g/a
In short: as §3

common ragweed [15] = assay: as above; details: dose 3.2 g/a
In short: as §3

large crabgrass [16] = assay: as above; details: dose 3.2 g/a
In short: as §3

velvetleaf [17] = assay: as above; details: dose 3.2 g/a
In short: as §3

posumbu knotweed [18] = assay: as above; details: dose 3.2 g/a
In short: as §3

barnyardgrass [19] = assay: as above; details: dose 3.2 g/a
In short: as §3

water foxtail [20] = assay: as above; details: dose 3.2 g/a
In short: as §3

common chickweed [21] = assay: as above; details: dose 3.2 g/a
In short: as §3

giant foxtail [22] = assay: as above; details: dose 3.2 g/a
In short: as §3

ducksalad [23] = assay: Test Example 1: herbicidal effects in preemergence treatment under submerged conditions; details: dose 2.52 g/a
In short: as §1

barnyardgrass [24] = assay: as above; details: dose 2.52 g/a
In short: as §1

bulrush [25] = assay: as above; details: dose 2.52 g/a
In short: as §1

ducksalad [26] = assay: Test Example 2: herbicidal effects during the vegetation period under submerged conditions; details: treatment during the vegetation period under submerged conditions; dose 2.52 g/a
In short: (§4)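 Barnyardgrass, bulrush and ducksalad were co-sown in alluvial soil flooded to 4 cm and grown in a greenhouse at 25 to 30° C. At the 1- or 2-leaf stage, water-diluted emulsifiable concentrates went onto the water surface at set doses (g/a). Herbicidal effect was scored three weeks later on a graded scale.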

barnyardgrass [27] = assay: as above; details: treatment during the vegetation period under submerged conditions; dose 2.52 g/a
In short: as §4

bulrush [28] = assay: as above; details: treatment during the vegetation period under submerged conditions; dose 2.52 g/a
In short: as §4

[29] = three weeks after the application

## CCOC(=O)N(c1ccccc1CN1OCC(C)OC1=O)S(=O)(=O)C(F)(F)F (stereo not drawn) [III-4]
Transplanted rice
  a: transplanted rice, effect on crop (evaluation scale 0-5): 0 (mortality of less than 5% (almost ineffective))
Common lambsquater [1]; [29]
  L: common lambsquater, herbicidal effect: 1 (mortality of at least 5% and less than 20%)
Redroot pigweed [2]; [29]
  K: redroot pigweed, herbicidal effect: 0 (mortality of less than 5% (almost ineffective))
Italian ryegrass [3]; [29]
  H: Italian ryegrass, herbicidal effect: 1 (mortality of at least 5% and less than 20%)
Common ragweed [4]; [29]
  J: common ragweed, herbicidal effect: 4 (mortality of at least 70% and less than 90%)
Large crabgrass [5]; [29]
  D: large crabgrass, herbicidal effect: 3 (mortality of at least 40% and less than 70%)
Velvetleaf [6]; [29]
  I: velvetleaf, herbicidal effect: 3 (mortality of at least 40% and less than 70%)
Posumbu knotweed [7]; [29]
  M: posumbu knotweed, herbicidal effect: 3 (mortality of at least 40% and less than 70%)
beadstraw; [29]
  O: beadstraw, herbicidal effect: 3 (mortality of at least 40% and less than 70%)
Barnyardgrass [8]; [29]
  A: barnyardgrass, herbicidal effect: 5 (mortality of 90% or above (nearly complete death))
Water foxtail [9]; [29]
  G: water foxtail, herbicidal effect: 5 (mortality of 90% or above (nearly complete death))
Common chickweed [10]; [29]
  N: common chickweed, herbicidal effect: 5 (mortality of 90% or above (nearly complete death))
Giant foxtail [11]; [29]
  E: giant foxtail, herbicidal effect: 4 (mortality of at least 70% and less than 90%)
Common lambsquater [12]
  herbicidal effect, L: common lambsquater: 5 (mortality of 90% or above (nearly complete death))
Redroot pigweed [13]
  herbicidal effect, K: redroot pigweed: 3 (mortality of at least 40% and less than 70%)
Italian ryegrass [14]
  herbicidal effect, H: Italian ryegrass: 5 (mortality of 90% or above (nearly complete death))
Common ragweed [15]
  herbicidal effect, J: common ragweed: 3 (mortality of at least 40% and less than 70%)
Large crabgrass [16]
  herbicidal effect, D: large crabgrass: 5 (mortality of 90% or above (nearly complete death))
Velvetleaf [17]
  herbicidal effect, I: velvetleaf: 5 (mortality of 90% or above (nearly complete death))
Posumbu knotweed [18]
  herbicidal effect, M: posumbu knotweed: 5 (mortality of 90% or above (nearly complete death))
Barnyardgrass [19]
  herbicidal effect, A: barnyardgrass: 5 (mortality of 90% or above (nearly complete death))
Water foxtail [20]
  herbicidal effect, G: water foxtail: 5 (mortality of 90% or above (nearly complete death))
Common chickweed [21]
  herbicidal effect, N: common chickweed: 4 (mortality of at least 70% and less than 90%)
Giant foxtail [22]
  herbicidal effect, E: giant foxtail: 5 (mortality of 90% or above (nearly complete death))
Ducksalad [23]
  C: ducksalad, herbicidal effect (evaluation scale 0-5): 5 (mortality of 90% or above (nearly complete death))
Barnyardgrass [24]
  A: barnyardgrass, herbicidal effect (evaluation scale 0-5): 5 (mortality of 90% or above (nearly complete death))
Bulrush [25]
  B: bulrush, herbicidal effect (evaluation scale 0-5): 5 (mortality of 90% or above (nearly complete death))
Ducksalad [26]
  C: ducksalad, herbicidal effect (evaluation scale 0-5): 5 (mortality of 90% or above (nearly complete death))
Barnyardgrass [27]
  A: barnyardgrass, herbicidal effect (evaluation scale 0-5): 5 (mortality of 90% or above (nearly complete death))
Bulrush [28]
  B: bulrush, herbicidal effect (evaluation scale 0-5): 5 (mortality of 90% or above (nearly complete death))

## CC1(CC(F)(F)F)CC(=O)N(Cc2ccccc2NS(=O)(=O)C(F)(F)F)CO1 (stereo not drawn) [II-51]
Transplanted rice
  a: transplanted rice, effect on crop (evaluation scale 0-5): 0 (mortality of less than 5% (almost ineffective))
Common lambsquater [1]; three weeks after application
  L: common lambsquater, herbicidal effect: 3 (mortality of at least 40% and less than 70%)
Redroot pigweed [2]; three weeks after application
  K: redroot pigweed, herbicidal effect: 0 (mortality of less than 5% (almost ineffective))
Italian ryegrass [3]; three weeks after application
  H: Italian ryegrass, herbicidal effect: 3 (mortality of at least 40% and less than 70%)
Common ragweed [4]; three weeks after application
  J: common ragweed, herbicidal effect: 3 (mortality of at least 40% and less than 70%)
Large crabgrass [5]; three weeks after application
  D: large crabgrass, herbicidal effect: 4 (mortality of at least 70% and less than 90%)
Velvetleaf [6]; three weeks after application
  I: velvetleaf, herbicidal effect: 4 (mortality of at least 70% and less than 90%)
Posumbu knotweed [7]; three weeks after application
  M: posumbu knotweed, herbicidal effect: 5 (mortality of 90% or above (nearly complete death))
beadstraw; three weeks after application
  O: beadstraw, herbicidal effect: 4 (mortality of at least 70% and less than 90%)
Barnyardgrass [8]; three weeks after application
  A: barnyardgrass, herbicidal effect: 5 (mortality of 90% or above (nearly complete death))
Water foxtail [9]; three weeks after application
  G: water foxtail, herbicidal effect: 5 (mortality of 90% or above (nearly complete death))
Common chickweed [10]; three weeks after application
  N: common chickweed, herbicidal effect: 5 (mortality of 90% or above (nearly complete death))
Giant foxtail [11]; three weeks after application
  E: giant foxtail, herbicidal effect: 4 (mortality of at least 70% and less than 90%)
Common lambsquater [12]
  L: common lambsquater, herbicidal effect (evaluation scale 0-5): 0 (mortality of less than 5% (almost ineffective))
Redroot pigweed [13]
  K: redroot pigweed, herbicidal effect (evaluation scale 0-5): 0 (mortality of less than 5% (almost ineffective))
Italian ryegrass [14]
  H: Italian ryegrass, herbicidal effect (evaluation scale 0-5): 3 (mortality of at least 40% and less than 70%)
Common ragweed [15]
  J: common ragweed, herbicidal effect (evaluation scale 0-5): 4 (mortality of at least 70% and less than 90%)
Large crabgrass [16]
  D: large crabgrass, herbicidal effect (evaluation scale 0-5): 5 (mortality of 90% or above (nearly complete death))
Velvetleaf [17]
  I: velvetleaf, herbicidal effect (evaluation scale 0-5): 5 (mortality of 90% or above (nearly complete death))
Posumbu knotweed [18]
  M: posumbu knotweed, herbicidal effect (evaluation scale 0-5): 5 (mortality of 90% or above (nearly complete death))
Barnyardgrass [19]
  A: barnyardgrass, herbicidal effect (evaluation scale 0-5): 5 (mortality of 90% or above (nearly complete death))
Water foxtail [20]
  G: water foxtail, herbicidal effect (evaluation scale 0-5): 5 (mortality of 90% or above (nearly complete death))
Common chickweed [21]
  N: common chickweed, herbicidal effect (evaluation scale 0-5): 5 (mortality of 90% or above (nearly complete death))
Giant foxtail [22]
  E: giant foxtail, herbicidal effect (evaluation scale 0-5): 4 (mortality of at least 70% and less than 90%)
Ducksalad [23]
  C: ducksalad, herbicidal effect (evaluation scale 0-5): 5 (mortality of 90% or above (nearly complete death))
Barnyardgrass [24]
  A: barnyardgrass, herbicidal effect (evaluation scale 0-5): 5 (mortality of 90% or above (nearly complete death))
Bulrush [25]
  B: bulrush, herbicidal effect (evaluation scale 0-5): 5 (mortality of 90% or above (nearly complete death))
Ducksalad [26]
  C: ducksalad, herbicidal effect (evaluation scale 0-5): 5 (mortality of 90% or above (nearly complete death))
Barnyardgrass [27]
  A: barnyardgrass, herbicidal effect (evaluation scale 0-5): 5 (mortality of 90% or above (nearly complete death))
Bulrush [28]
  B: bulrush, herbicidal effect (evaluation scale 0-5): 4 (mortality of at least 70% and less than 90%)

From US20120029187A1, “HALOALKYLSULFONANILIDE DERIVATIVE” (Nissan Chemical Industries, Ltd., priority 2009, published 2012)
